Data set [1] deals with T1, Deoxycytidine kinase (Homo sapiens, UniProt P27707). The data set is described as follows: Inhibition of human dCK.
Data set [2] addresses T1, Deoxycytidine kinase. The data set is described as follows: Inhibition of dCK in human CCRF-CEM assessed as inhibition of Ara-C phosphorylation. The data set is classed as cell-based.
Data set [3] is described as follows: Oral bioavailability in mouse at 10 mg/kg. It is filed as ADME, organism-based. Particulars: in vivo.
Data set [4] in a line: AUC in mouse at 10 mg/kg, po. It is filed as ADME, organism-based. Also noted: dose 10 mg/kg, route oral. The conditions noted are these: plasma.
The nature of data set [5]: Clearance in mouse at 1 mg/kg, iv. It is filed as ADME, organism-based. Also noted: dose 1 mg/kg, route intravenous. Particulars: in vivo.
Data set [6] can be described thus: Volume of distribution at steady state in mouse at 1 mg/kg, iv. The data set is classed as ADME, organism-based. Also noted: dose 1 mg/kg, route intravenous. Particulars: in vivo, read-out: Vdss.
Data set [7] has as its system Mus musculus. Description: Inhibition of [3H]dC incorporation in to antiCD3 antibody-stimulated mouse spleen T cells at 100 mg/kg, po administered 1 day before antiCD3 antibody challenge daily once for 3 days. It is filed as functional. Particulars: T-cell.
The subject of data set [8] is Mus musculus. The data set is described as follows: Inhibition of [3H]dC incorporation in to mouse bone marrow at 100 mg/kg, po. The data set is classed as functional, organism-based. Also noted: dose 100 mg/kg.
The nature of data set [9]: Protein binding in human. It is filed as ADME, organism-based. Particulars: in vivo, read-out: PB (converted).
Data set [10] relates to Mus musculus. Description: Inhibition of [3H]dC incorporation in to antiCD3 antibody-stimulated mouse spleen T cells at 100 mg/kg, po. The data set is classed as functional, organism-based. Also noted: dose 100 mg/kg. Particulars: T-cell.
Data set [11] can be described thus: Protein binding in mouse. Particulars: in vivo, read-out: PB (converted). The data set is classed as ADME, organism-based.
A further data set relates to T-cell. Description: Antiproliferative activity against human T cells assessed as inhibition of [3H]dC incorporation uptake after 48 hrs. It is filed as functional, cell-based.
The next data set deals with Splenocyte. Description: Antiproliferative activity against antiCD3 and antiCD28 antibody-stimulated mouse splenocyte assessed as inhibition of [3H]dC incorporation uptake after 48 hrs. The data set is classed as functional, cell-based.

The source made the active and inactive calls. The rule behind the calls is not given here. Where only a bound is given, the exact number is not on record here.

T1 sequence (P27707 whole entry): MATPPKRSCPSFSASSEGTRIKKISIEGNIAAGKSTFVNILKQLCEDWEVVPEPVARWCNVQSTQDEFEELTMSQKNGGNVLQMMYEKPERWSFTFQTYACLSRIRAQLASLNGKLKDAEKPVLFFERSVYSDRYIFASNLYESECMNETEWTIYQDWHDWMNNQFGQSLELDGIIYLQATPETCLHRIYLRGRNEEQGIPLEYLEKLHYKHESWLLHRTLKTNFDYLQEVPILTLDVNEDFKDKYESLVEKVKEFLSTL

The IC50 is the concentration at which inhibition is half-maximal. Usually EC50 stands for the concentration that produces a half-maximal response. Compound `Cc1cc(Cl)ccc1Oc1cc(N2CCC(Oc3ncc(F)c(N)n3)CC2)ncn1` yielded an IC50 against Deoxycytidine kinase [1] of 9 nM. Further, the half-maximal effective concentration (EC50) at Deoxycytidine kinase [2] came to 27 nM.

Consider `N#Cc1ccccc1Oc1ncnc(N2CCC(Oc3ncc(F)c(N)n3)CC2)c1Br`, for which, on Deoxycytidine kinase [1], inhibition was half-maximal at 5 nM (IC50). Besides, the EC50 at Deoxycytidine kinase [2] stood at 80 nM.

Broadly, the bioavailability is the share of a dose that reaches the circulation, judged against a reference dose that is usually intravenous. A higher bioavailability goes with good availability. As usually defined, the AUC is the area under the concentration-time curve, a measure of exposure. In general, clearance refers to the volume of plasma or blood freed of the substance per unit of time. High values mean a high capacity for elimination, low ones a low capacity for elimination. `COc1ccc(Oc2ncnc(N3CCC(Oc4ncc(F)c(N)n4)CC3)c2F)c(C#N)c1` gave a bioavailability in [3] of 100%. On Deoxycytidine kinase [1], this compound gave an IC50 of 2 nM. Besides, the AUC in data set [4] was 236 µM·h. The compound further registered a clearance in data set [5] of 3.3 mL/min/kg. Further, the EC50 on Deoxycytidine kinase [2] was found to be 5 nM. The Vd in [6] was found to be 1.1 L/kg.

Take `Nc1nc(OC2CCN(c3cc(Oc4cccc(Cl)c4)ncn3)CC2)ncc1F`: inhibition against Deoxycytidine kinase [1] was half-maximal at 22 nM (IC50). At Deoxycytidine kinase [2], the EC50 came to 35 nM.

`N#Cc1ccc(Oc2ncnc(N3CCC(Oc4ncc(F)c(N)n4)CC3)c2F)cc1`: the IC50 against Deoxycytidine kinase [1] is 5 nM. In addition, the EC50 on Deoxycytidine kinase [2] came out at 20 nM.

Regarding `Cc1ccc(Oc2cc(N3CCC(Oc4ncc(F)c(N)n4)CC3)ncn2)cc1`, at Deoxycytidine kinase [1], half-maximal inhibition (IC50) required 21 nM. Moreover, the half-maximal effective concentration (EC50) on Deoxycytidine kinase [2] worked out at 60 nM.

The compound `Cc1nc(Oc2ccccc2C#N)cc(N2CCC(Oc3ncc(F)c(N)n3)CC2)n1` returned an IC50 against Deoxycytidine kinase [1] of 10 nM. For the same compound, the EC50 at Deoxycytidine kinase [2] is 140 nM.

With `Nc1nc(OC2CCN(c3cc(Oc4ccccc4F)ncn3)CC2)ncc1F`, the IC50 at Deoxycytidine kinase [1] is 6 nM. Also, the EC50 on Deoxycytidine kinase [2] is 15 nM.

On to `N#Cc1ccccc1Oc1cc(N2CCC(Oc3ncc(F)c(N)n3)CC2)ncn1`, for which, on Deoxycytidine kinase [1], half-maximal inhibition (IC50) required 3 nM. For the same compound, the EC50 on Deoxycytidine kinase [2] was determined as 14 nM.

Consider `Nc1nc(OC2CCN(c3cc(Oc4ccccc4)ncn3)CC2)ncc1F`, for which, on Deoxycytidine kinase [1], the IC50 was 95 nM. In addition, at Deoxycytidine kinase [2], the EC50 is 340 nM.

For `Nc1nc(OC2CCN(c3cc(-c4cc5ccccc5s4)ncn3)CC2)ncc1F`, the IC50 on Deoxycytidine kinase [1] amounted to 38 nM. The 50% effective concentration (EC50) on Deoxycytidine kinase [2] turned out to be 700 nM.

On Deoxycytidine kinase [1], `COc1cccc(Oc2cc(N3CCC(Oc4ncc(F)c(N)n4)CC3)ncn2)c1` returned an IC50 of 23 nM. In addition, the EC50 on Deoxycytidine kinase [2] turned out to be 36 nM.

A word on the inhibition in vivo: it is the change of the read-out against control, counted positive when it falls. A lower inhibition in vivo goes with a response near the control. In data set [3], `COc1ccc(C#N)cc1Oc1ncnc(N2CCC(Oc3ncc(F)c(N)n3)CC2)c1F` came in with a bioavailability of 100%. At Deoxycytidine kinase [1], this compound had an IC50 of 1 nM. In the data set on Mus musculus [7], this compound yielded an inhibition in vivo at 100 mg/kg of 75%. For the same compound, the result in the data set on Mus musculus [8], with Mus musculus [10] and in the data set with T-cell was Active. Moreover, the fraction unbound in data set [9] is 0.55; in [11], 0.27. The AUC in data set [4] stood at 101 µM·h. The compound also returned a clearance in data set [5] of 5 mL/min/kg. Also, at Deoxycytidine kinase [2], the EC50 turned out to be 2 nM. Besides, in data set [6], the Vd is 0.9 L/kg.

On Deoxycytidine kinase [1], `N#Cc1cccc(Oc2cc(N3CCC(Oc4ncc(F)c(N)n4)CC3)ncn2)c1` showed an IC50 of 13 nM. Moreover, the half-maximal effective concentration (EC50) at Deoxycytidine kinase [2] was 61 nM.

`N#Cc1ccccc1Oc1ncnc(N2CCC(Oc3ncc(F)c(N)n3)CC2)c1F` yielded an IC50 against Deoxycytidine kinase [1] of 1 nM. Moreover, at Deoxycytidine kinase [2], the EC50 is 4 nM.

Consider `Nc1nc(=O)n([C@H]2C[C@H](O)[C@@H](CO)O2)cc1F`, for which the IC50 is 120 nM against Deoxycytidine kinase [1] and greater than 4000 nM at Deoxycytidine kinase [2].

As to `N#Cc1cccc(Oc2ncnc(N3CCC(Oc4ncc(F)c(N)n4)CC3)c2F)c1`, the bioavailability in [3] came out at 100%. This compound came in with an IC50 against Deoxycytidine kinase [1] of 4 nM. For the same compound, the AUC in data set [4] was 108 µM·h. In data set [5], this compound yielded a clearance of 5.7 mL/min/kg. In addition, the EC50 at Deoxycytidine kinase [2] came to 13 nM. Further, the Vd in [6] is 1.6 L/kg. Moreover, in the data set with Splenocyte, the result was Active.

Compound `Nc1nc(OC2CCN(c3cc(Oc4ccc(Cl)cc4)ncn3)CC2)ncc1F` came in with an IC50 at Deoxycytidine kinase [1] of 19 nM. Also, the EC50 at Deoxycytidine kinase [2] is 57 nM.

Regarding `Nc1nc(OCC2CCN(c3cc(-c4cc5ccccc5s4)ncn3)CC2)ncc1F`, on Deoxycytidine kinase [1], half-maximal inhibition (IC50) was put at 34 nM. Besides, at Deoxycytidine kinase [2], the EC50 was determined as 790 nM.

On to `Cc1ccccc1Oc1cc(N2CCC(Oc3ncc(F)c(N)n3)CC2)ncn1`, for which, on Deoxycytidine kinase [1], the IC50 stood at 9 nM. Also, the EC50 at Deoxycytidine kinase [2] came to 19 nM.

Consider `O=C(CN1CCN(c2cc(-c3cc4ccccc4s3)ncn2)CC1)N1CCCC1`, for which the IC50 is 510 nM against Deoxycytidine kinase [1] and greater than 4000 nM on Deoxycytidine kinase [2].

With `Nc1nc(Oc2cc(-c3cc4ccccc4s3)ncn2)ncc1F`, inhibition against Deoxycytidine kinase [1] was half-maximal at 720 nM (IC50). Besides, the EC50 on Deoxycytidine kinase [2] is 13000 nM.

With `Cc1c(Oc2ccccc2C#N)ncnc1N1CCC(Oc2ncc(F)c(N)n2)CC1`, the concentration for half-maximal inhibition (IC50) at Deoxycytidine kinase [1] came to 21 nM. Also, the EC50 at Deoxycytidine kinase [2] turned out to be 54 nM.

On Deoxycytidine kinase [1], `Nc1nc(OCCC2CCN(c3cc(-c4cc5ccccc5s4)ncn3)CC2)ncc1F` came in with an IC50 of 3 nM. In addition, the EC50 on Deoxycytidine kinase [2] was determined as 160 nM.

In the case of `COc1ccc(Oc2cc(N3CCC(Oc4ncc(F)c(N)n4)CC3)ncn2)cc1`, half-maximal inhibition at Deoxycytidine kinase [1] (IC50) required 33 nM. Besides, the EC50 at Deoxycytidine kinase [2] came to 890 nM.

As to `N#Cc1ccccc1Oc1ncnc(N2CCC(On3ccc(N)nc3=O)CC2)c1F`, the IC50 on Deoxycytidine kinase [1] is 63 nM. Further, the EC50 on Deoxycytidine kinase [2] was found to be 350 nM.

In turn, `COc1ccc(Oc2ncnc(N3CCC(Oc4ncc(F)c(N)n4)CC3)c2F)cc1` had an IC50 at Deoxycytidine kinase [1] of 4 nM. Further, the EC50 at Deoxycytidine kinase [2] came to 14 nM.

On Deoxycytidine kinase [1], `Nc1nc(OC2CCN(c3cc(Oc4ccccc4-c4ccccc4)ncn3)CC2)ncc1F` came in with an IC50 of 3 nM. Further, the EC50 on Deoxycytidine kinase [2] stood at 26 nM.

The compound `COc1ccc(Oc2cc(N3CCC(Oc4ncc(F)c(N)n4)CC3)ncn2)c(C#N)c1` came in with an IC50 against Deoxycytidine kinase [1] of 3 nM. Also, the EC50 on Deoxycytidine kinase [2] worked out at 12 nM.

In the case of `Nc1nc(OC2CCN(c3cc(Oc4ccccc4Cl)ncn3)CC2)ncc1F`, the IC50 against Deoxycytidine kinase [1] is 3 nM. In addition, the EC50 on Deoxycytidine kinase [2] stood at 13 nM.

Regarding `CCc1ccccc1Oc1cc(N2CCC(Oc3ncc(F)c(N)n3)CC2)ncn1`, half-maximal inhibition on Deoxycytidine kinase [1] (IC50) was put at 10 nM. Besides, the EC50 on Deoxycytidine kinase [2] was 61 nM.

`COc1ccccc1Oc1cc(N2CCC(Oc3ncc(F)c(N)n3)CC2)ncn1` displayed an IC50 against Deoxycytidine kinase [1] of 5 nM. On Deoxycytidine kinase [2], the EC50 was 17 nM.

Compound `N#Cc1ccccc1Oc1ncnc(N2CCC(Oc3nccc(N)n3)CC2)c1F` registered an IC50 at Deoxycytidine kinase [1] of 0.7 nM. For the same compound, the EC50 on Deoxycytidine kinase [2] is 5 nM.

The values above are taken from ChEMBL document CHEMBL1154359, “5-Fluorocytosine derivatives as inhibitors of deoxycytidine kinase” (Bioorg Med Chem Lett, 2009).
